Source: ChEMBL document CHEMBL1146356, “Lactotriaose-containing carbosilane dendrimers: syntheses and lectin-binding activities” (Bioorg Med Chem, 2007)

Experiments:
Triticum aestivum [1] = assay: Binding affinity to wheat germ agglutinin
Triticum aestivum [2] = assay: Binding affinity to wheat germ agglutinin relative to Monovalent

| SMILES | Ka (Triticum aestivum [1]) | Activity (Triticum aestivum [2]) |
| --- | --- | --- |
| CC(=O)N[C@H]1[C@H](O[C@H]2[C@@H](O)[C@@H](CO)O[C@@H](O[C@@H]3[C@@H](O)[C@H](O)C(O)O[C@H]3CO)[C@@H]2O)O[C@H](CO)[C@@H](O)[C@@H]1O (stereo not given in full) | 1.1 10^3/M | – |
| CC(=O)N[C@H]1[C@H](O[C@H]2[C@@H](O)[C@@H](CO)O[C@@H](O[C@@H]3[C@@H](O)[C@H](O)C(OCCCCCSCCC[Si](CCCSCCCCCOC4O[C@@H](CO)[C@H](O[C@@H]5O[C@H](CO)[C@H](O)[C@H](O[C@@H]6O[C@H](CO)[C@@H](O)[C@H](O)[C@H]6NC(C)=O)[C@H]5O)[C@@H](O)[C@@H]4O)(CCCSCCCCCOC4O[C@@H](CO)[C@H](O[C@@H]5O[C@H](CO)[C@H](O)[C@H](O[C@@H]6O[C@H](CO)[C@@H](O)[C@H](O)[C@H]6NC(C)=O)[C@H]5O)[C@@H](O)[C@@H]4O)CCC[Si](C)(C)CCC[Si](CCCSCCCCCOC4O[C@@H](CO)[C@H](O[C@@H]5O[C@H](CO)[C@H](O)[C@H](O[C@@H]6O[C@H](CO)[C@@H](O)[C@H](O)[C@H]6NC(C)=O)[C@H]5O)[C@@H](O)[C@@H]4O)(CCCSCCCCCOC4O[C@@H](CO)[C@H](O[C@@H]5O[C@H](CO)[C@H](O)[C@H](O[C@@H]6O[C@H](CO)[C@@H](O)[C@H](O)[C@H]6NC(C)=O)[C@H]5O)[C@@H](O)[C@@H]4O)CCCSCCCCCOC4O[C@@H](CO)[C@H](O[C@@H]5O[C@H](CO)[C@H](O)[C@H](O[C@@H]6O[C@H](CO)[C@@H](O)[C@H](O)[C@H]6NC(C)=O)[C@H]5O)[C@@H](O)[C@@H]4O)O[C@H]3CO)[C@@H]2O)O[C@H](CO)[C@@H](O)[C@@H]1O (stereo not given in full) | 2.8 10^6/M | 2500 |
| CC(=O)N[C@H]1[C@H](O[C@H]2[C@@H](O)[C@@H](CO)O[C@@H](O[C@@H]3[C@@H](O)[C@H](O)C(OCCCCCSCCC[Si](CCCSCCCCCOC4O[C@@H](CO)[C@H](O[C@@H]5O[C@H](CO)[C@H](O)[C@H](O[C@@H]6O[C@H](CO)[C@@H](O)[C@H](O)[C@H]6NC(C)=O)[C@H]5O)[C@@H](O)[C@@H]4O)(CCCSCCCCCOC4O[C@@H](CO)[C@H](O[C@@H]5O[C@H](CO)[C@H](O)[C@H](O[C@@H]6O[C@H](CO)[C@@H](O)[C@H](O)[C@H]6NC(C)=O)[C@H]5O)[C@@H](O)[C@@H]4O)CCC[Si](CCCSCCCCCOC4O[C@@H](CO)[C@H](O[C@@H]5O[C@H](CO)[C@H](O)[C@H](O[C@@H]6O[C@H](CO)[C@@H](O)[C@H](O)[C@H]6NC(C)=O)[C@H]5O)[C@@H](O)[C@@H]4O)(CCCSCCCCCOC4O[C@@H](CO)[C@H](O[C@@H]5O[C@H](CO)[C@H](O)[C@H](O[C@@H]6O[C@H](CO)[C@@H](O)[C@H](O)[C@H]6NC(C)=O)[C@H]5O)[C@@H](O)[C@@H]4O)CCC[Si](CCSCCCCCOC4O[C@@H](CO)[C@H](O[C@@H]5O[C@H](CO)[C@H](O)[C@H](O[C@@H]6O[C@H](CO)[C@@H](O)[C@H](O)[C@H]6NC(C)=O)[C@H]5O)[C@@H](O)[C@@H]4O)(CCSCCCCCOC4O[C@@H](CO)[C@H](O[C@@H]5O[C@H](CO)[C@H](O)[C@H](O[C@@H]6O[C@H](CO)[C@@H](O)[C@H](O)[C@H]6NC(C)=O)[C@H]5O)[C@@H](O)[C@@H]4O)CCSCCCCCOC4O[C@@H](CO)[C@H](O[C@@H]5O[C@H](CO)[C@H](O)[C@H](O[C@@H]6O[C@H](CO)[C@@H](O)[C@H](O)[C@H]6NC(C)=O)[C@H]5O)[C@@H](O)[C@@H]4O)O[C@H]3CO)[C@@H]2O)O[C@H](CO)[C@@H](O)[C@@H]1O (stereo not given in full) | 1.3 10^6/M | 1200 |
